Data on 64 compounds can be found in PubChem BioAssay AID1508591.

The conditions of the series: rat; liver microsomes; pH 7.4; 15.0 min; 1.0 µM. (Liver microsomes are a subcellular fraction often used to study metabolism.)

Structures are written as SMILES.

For the compound `CNC(=O)c1ccc(C)c(-n2c(C)cc(OCc3ccc(F)cc3F)c(Br)c2=O)c1`, the half-life – broadly, the time needed for the level to fall by half in the phase considered – was more than 30 min.
In turn, `COC(=O)CNC(=O)c1nc(-c2ccc(F)cc2)c2ccccn12` came in with a half-life of 0.91 min.
For `Cn1cnc(-c2nccc3c(=O)[nH]c(OCCCC(F)(F)F)nc23)c1`, the half-life amounted to 16.5 min.
Consider `O=C(c1ccc2c(c1)ncn2-c1cccc(Cl)c1)N1CCCCC1`, for which the half-life turned out to be 5.83 min.
The value for `Cc1nn2c(c1-c1ccccc1-c1ccccc1)N(CC1CC1)CCC2` was 2.78 min; that for `Nc1ncnc2c1c(-c1ccc(Oc3ccccc3)cc1)cn2C1CCCC1` was 10.9 min; that for `O=C1CCCC2=C1C(c1ccccc1Br)N=C(Nc1nc3ccccc3o1)N2` (centres undefined) was 9.6 min.
With `O=S(=O)(Nc1cccc2cccnc12)c1ccc(NCc2ccc(Br)cc2O)cc1` the figure was 2.4 min.
With `COc1cccc(CNc2ccc(S(=O)(=O)Nc3ccccn3)cc2)c1O` the figure was more than 30 min; with `Cc1nc(NC2CCCCC2)c2nc(-c3ccccc3)n(CCN(C)C)c2n1`, 3.74 min.
Compound `COc1ccc(Cl)cc1C(=O)Nc1ccc(NC(=O)c2ccco2)cc1` displayed a half-life of more than 30 min.
The compound `CC(=O)c1ccc(N2CCN(C(=O)c3ccc4c(c3)CC(=O)N4)CC2)cc1` yielded a half-life of more than 30 min.
For `Cc1ccc(S(=O)(=O)Nc2cc(Br)ccc2C(=O)Nc2nc(-c3ccccc3)cs2)cc1`, the half-life came to 9.6 min.
Compound `COc1ccnc(NC(=S)N2CCN(c3ccccc3C(F)(F)F)CC2)c1` yielded a half-life of 2.9 min.
With `CC1=C(C(=O)Nc2nnc(-c3ccccc3)s2)C(c2nn(C)cc2Cl)N=C(Nc2nc3ccccc3o2)N1` (centres undefined), the half-life was 11 min.
`CN(C)c1cccc(-c2ncc(F)c(N3CCC(C(N)=O)CC3)n2)c1` showed a half-life of 2.08 min.
Take `COc1ccc(C(=O)Nc2nc(-c3ccccc3)cs2)c(NS(=O)(=O)c2ccc(C)cc2)c1`: the half-life was found to be 6.5 min.
With `COc1cccc(-c2cn3c(n2)sc2cc(C(=O)NCCc4ccc(OC)c(OC)c4)ccc23)c1` the figure was 2.26 min; with `O=S(=O)(Nc1nccs1)c1ccc(NCc2cccc(Br)c2O)cc1`, 14 min; with `Cc1ccc([S+](=O)([O-])n2cc(-c3ccc(-c4ccccc4)cc3)c3ccccc32)cc1`, more than 30 min.
With `O=C1Nc2ccccc2C12CC2c1cc(Cl)c(O)c(Cl)c1` (centres undefined) the figure was 9.8 min; with `O=C1Nc2ccccc2/C1=C/c1ccnc2ccccc12`, 4.5 min.
In the case of `CCN1CCN(c2ncc3c(n2)CCN(Cc2cc(Br)cs2)C3)CC1`, the half-life was determined as 2.7 min.
With `COc1cccc(C(=O)NCCSc2c(-c3ccc(F)cc3)[nH]c3ccccc23)c1OC` the figure was 1.26 min; with `COc1cccc(CNc2ccc(S(=O)(=O)Nc3ccc(N4CCNCC4)cc3)cc2)c1O`, more than 30 min; with `CCc1ccc(NC(=O)c2[nH]c(C)c(C(C)=O)c2C)cc1S(=O)(=O)Nc1ccc(Br)cc1`, 23 min.
The value for `COc1cc(-c2nc(Cn3nnc(C(=O)Nc4cc(C)cc(C)c4)c3C)c(C)o2)cc(OC)c1OC` was 20.6 min; that for `Fc1cc(Nc2nc(-c3ccncc3)nc3ccccc23)ccc1N1CCNCC1` was more than 30 min.
`Cc1ccc(CNc2nc(-c3ccccc3C(F)(F)F)nc3ccccc23)s1` returned a half-life of 1.7 min.
Compound `O=C(CSc1ccccc1)Nc1nnc(COc2ccc(Cl)cc2)s1` yielded a half-life of 7 min.
With `CCOC(=O)c1csc(NC(=O)c2ccncc2NS(=O)(=O)c2ccc(C)cc2)n1` the figure was 1.9 min.
In turn, `CCN1C(=O)c2ccccc2S(=O)c2ccc(NC(=O)Cc3ccc(F)cc3)cc21` (centres undefined) had a half-life of 6.3 min.
With `CC(C)(O)CNc1nc(Nc2ccnc(C(F)(F)F)c2)nc(-c2cccc(C(F)(F)F)n2)n1` the figure was more than 30 min; with `CCOc1cc2ncc(C#N)c(Nc3ccc(OCc4ccccn4)c(Cl)c3)c2cc1NC(=O)C=CCN(C)C`, more than 30 min.
With `Fc1cc(F)cc(Nc2nc(-c3ccncc3)nc3ccccc23)c1`, the half-life amounted to 15 min.
With `COc1ncc(-c2n[nH]c3c2CC(=O)N(c2ccccc2)C3)cn1` the figure was more than 30 min; with `Cc1ccc(S(=O)(=O)Nc2ccc(F)cc2C(=O)Nc2nc(-c3ccccc3)cs2)cc1`, 3 min.
For the compound `O=C(O)c1ccc(-c2c[nH]c3ncc(-c4ccccc4)cc23)cc1C1CCCC1`, the half-life was more than 30 min.
The value for `[2H]C([2H])(Nc1nc(-c2ccccc2C([2H])(C([2H])([2H])[2H])C([2H])([2H])[2H])ncc1C)c1ccc(-n2ccnn2)cc1` was 13 min; that for `O=C(Cc1cccs1)NCc1nnc2ccc(-c3ccccc3)nn12` was 17.8 min; that for `O=S(=O)(Nc1nc2ccccc2s1)c1ccc(NCc2cccc(Cl)c2O)cc1` was more than 30 min.
The compound `Cc1ccc(C(=O)N2CCc3c(nc4cc(-c5ccccc5)[nH]n4c3=O)C2)cn1` registered a half-life of more than 30 min.
Compound `NC(=O)C1CCN(c2nnc(-c3ccc(Br)cc3)s2)CC1` came in with a half-life of 7.89 min.
The value for `Fc1ccc(Nc2nc(-c3ccncc3Cl)nc3ccccc23)cc1F` was 19 min; that for `CCOc1ccc(NC(=O)c2cccc(-n3cccc3)c2)cc1S(=O)(=O)N1CCOCC1` was 3.16 min.
`Cc1cc(-c2nnc3n2CCCCC3)c(C)n1-c1ccc(C#N)cc1` showed a half-life of 3.6 min.
Compound `CCOc1ccc(CCNC(=O)c2cc3sccc3n2CCN2CCOCC2)cc1OCC` returned a half-life of 1.6 min.
`CCOc1ccc(CCNC(=O)c2cc3sccc3n2Cc2ccc(-n3cncn3)cc2)cc1OCC`: the half-life turned out to be 4.3 min.
With `O=C1CCCC2=C1C(c1[nH]ncc1Cl)N=C(Nc1nc3c(Cl)cccc3o1)N2` (centres undefined) the figure was 3.4 min; with `O=C(Nc1nc(-c2ccc(F)cc2)cs1)c1ccncc1NS(=O)(=O)c1ccccc1Cl`, more than 30 min; with `c1cnc(N2CCN(Cc3c[nH]c4ccccc34)CC2)nc1`, 1.6 min.
The compound `CC1=C(C(=O)Nc2nncs2)C2(CCCC2)N=C(Nc2nc3ccccc3o2)N1` yielded a half-life of more than 30 min.
The value for `Cc1cc(Cl)ccc1COc1ccnn1-c1cc(C(=O)O)ccn1` was more than 30 min; that for `COc1ccccc1Nc1ccnc(N2CCN(C(=O)c3ccc(F)cc3)CC2)n1` was 11.2 min; that for `Cc1sc2c(c1C)C(c1ccc(Cl)cc1)=N[C@@H](CC(=O)Nc1ccc(OCCOCCOCCOCCNc3cccc4c3C(=O)N(C3CCC(=O)NC3=O)C4=O)cc1)c1nnc(C)n1-2` (some centres undefined) was 1.26 min.
`CN(C)c1ccc(CN2CCNc3cc(Nc4ccccc4)ncc3C2)cc1` displayed a half-life of 2.01 min.
For `Cc1ccc(S(=O)(=O)Nc2ccc(Cl)c(C(=O)Nc3nc(-c4ccccc4)cs3)c2)cc1`, the half-life stood at 18 min.
For the compound `COc1ccnc(NC(=S)N2CCN(c3cccc(C(F)(F)F)n3)CC2)c1`, the half-life came out at 12 min.
`O=C(O)c1ccc(N2C(=O)/C(=C/c3ccc(-c4ccc([N+](=O)[O-])cc4)o3)C=C2c2ccccc2)cc1` showed a half-life of more than 30 min.
With `CCc1ccc(OC(C)C(=O)N2CCC(c3nc4ccccc4o3)CC2)cc1` (centres undefined) the figure was 1.32 min; with `CN(C)C(=O)c1nc(-c2ccc(S(C)(=O)=O)cc2)c2cnccn12`, more than 30 min.
Take `COC(=O)c1ccc2c(C(=Nc3ccc(N(C)C(=O)CN4CCN(C)CC4)cc3)c3ccccc3)c(O)[nH]c2c1`: the half-life was more than 30 min.
As for `CCOc1ccc(CCNC(=O)c2cc3sccc3n2Cc2ccc(Cl)c(F)c2)cc1OCC`, the half-life was determined as 1.75 min.
`O=C1Nc2ccccc2/C1=C\c1ccc(O)cc1` registered a half-life of 14 min.
